Measured values as given in ChEMBL document CHEMBL3045509, “Oxadiazolo pyrrolidine carboxamides as enoyl-ACP reductase inhibitors: design, synthesis and antitubercular activity screening” (2013).
Converted amounts (≈) assume the structure as drawn.

Test system: Mycobacterium tuberculosis
Experiment: Antitubercular activity against Mycobacterium tuberculosis H37Rv MTCC 300 after 7 days by Alamar blue assay
Assay type: functional
Conditions: H37Rv MTCC 300, 168 h

Compared with `O=C(Nc1nnc(-c2ccc([N+](=O)[O-])cc2)o1)C1CC(=O)N(c2ccccc2)C1` (stereo unspecified), `Cc1ccc(-c2nnc(NC(=O)C3CC(=O)N(c4ccccc4)C3)o2)cc1` (stereo unspecified) is 2-fold higher in MIC: 25 mg/L (≈ 63.6 µM) for the first, 50 mg/L (≈ 138 µM) for the second.

First: COc1ccc(-c2nnc(NC(=O)C3CC(=O)N(c4ccccc4)C3)o2)cc1 (stereo unspecified)
Second: O=C(Nc1nnc(-c2ccc(Cl)cc2)o1)C1CC(=O)N(c2ccccc2)C1 (stereo unspecified)
The MIC of the first is 8-fold lower: 3.12 mg/L (≈ 8.26 µM) for the first, 25 mg/L (≈ 65.3 µM) for the second.

First: O=C(Nc1nnc(-c2ccccc2)o1)C1CC(=O)N(c2ccccc2)C1 (stereo unspecified)
Second: NNC(=O)c1ccncc1 [ISONIAZID]
The MIC of the first is 50-fold higher: 12.5 mg/L (≈ 35.9 µM) for the first, 0.25 mg/L (≈ 1.82 µM) for the second.
